Test results published in patent publication US20100076005A1, “ISOCARBOSTYRIL ALKALOID DERIVATIVES HAVING ANTI-PROLIFERATIVE AND ANTI-MIGRATORY ACTIVITIES” (Unibioscreen SA, priority 2006, published 2010).

Legend:
[1] = in vivo; conditions: mouse, maximum tolerated dose, single intravenous dose, healthy mice, survival and weights recorded up to 14 days
Description: The maximum tolerated dose (herein after MTD) is defined as the maximum amount of a given drug which can be administered acutely (i.e. in one intraperitoneal, intravenous, subcutaneous or oral single dose) to healthy animals, i.e. animals not grafted with tumors. In this assay, compounds were administered intravenously. The survival times and weights of the animals were recorded up to 14 days post injection. Five different doses of each compound were used for the determination of the MTD index. Each experimental group comprised 3 mice for the determination of the MTD (expressed in mg/kg).

[2] = tested on: six human cancer cell lines (prostate, glioma, pancreas, colon, lung, and breast cancers); assay: MTT test of overall cell growth, mean of six human cancer cell lines; type: cell-based; conditions: 72 hours of incubation, mean of the six human cancer cell lines, range of molar concentrations giving 50% inhibition of overall tumor cell growth
Description: MTT tests were performed in order to rapidly, i.e. within 5 days, measure the effect of compounds of this invention on the overall cell growth. The test measured the number of metabolically active living cells that were able to transform the yellow product 3-(4,5-dimethylthiazol-2-yl)-2,5-diphenyl tetrazolium bromide (herein referred as MTT) into the blue product formazan dye by mitochondrial reduction. The amount of formazan obtained at the end of the experiment, measured by means of a spectrophotometer, is directly proportional to the number of living cells.
Six human cancer cell lines described in table 7 were used in the following MTT tests. These cancer cell lines cover six histological cancer types, being prostate, glioma, pancreas, colon, lung, and breast cancers.
To perform the assay, cells were allowed to grow in 96-well micro-wells with a flat bottom with an amount of 100 μl of cell suspension per well with 1,000 to 4,000 cells/well depending on the cell type used. Each cell line was seeded in a well known MEM 10% serum culture medium.
The detailed experimental procedure was the following: after a 24-hour period of incubation at 37° C., the culture medium was replaced by 100 μl of fresh medium in which the tested compound was previously dissolved, at the following molar concentrations: 10^−9 M, 5.10^−9 M, […], 10^−7 M, 5.10^−7 M, 10^−6 M, 5.10^−6 M, and […]. Each experiment was repeated 6 times.
After 72 hours of incubation at 37° C. with (experimental conditions) or without (control condition) the compound to be tested, the medium was replaced by 100 μl MTT dissolved in RPMI (1640 without phenol red) at a concentration of 1 mg/ml. The micro-wells were subsequently incubated during 3 hours at 37° C. and centrifuged at 400 g during 10 minutes. MTT was removed and formazan crystals formed were dissolved in 100 μl DMSO. The micro-wells were shaken for 5 minutes and read on a spectrophotometer at wavelengths of 570 nm (maximum formazan absorbance) and 630 nm (background noise).
For each experimental condition, the mean optical density was calculated, allowing the determination of the percentage of remaining living cells in comparison to the control.

[3] = tested on: U-373MG (apoptosis-sensitive cancer cells); assay: Cellular imaging (computer-assisted phase-contrast microscopy): cell migration and global growth ratio; type: cell-based, human; conditions: 100 nM; for Ratio GGRtreated cells/GGRcontrol cells: 72 h, global growth ratio; for effect on cell migration: filmed for 72 h
Description: (§1) A cellular imaging approach (Debeir et al., Cytometry 60:29-40, 2004; Debeir et al., IEEE Trans Med Imaging 24:697-711, 2005) was used to investigate whether the isocarbostyril alkaloid derivatives of the present invention were able to impair cell proliferation and cell migration in apoptosis-sensitive (U-373MG—see Table 7) as well as apoptosis-resistant (PC3—see Table 7) cancer cells. Cellular imaging relied on the use of computer-assisted phase-contrast microscopy making possible to film the behavior of living cells in culture dishes for several days.
(§2) Cells were seeded in 25-cm^2 at a low density, treated or not with the compounds of the present invention (at a concentration of 100 nM) and filmed thereafter for a period of 72 h. The analysis of the films was performed by two operators, working independently. The effect on cell migration was characterized as +++ (high effect: cell migration of most cells is drastically altered for most of the duration of the film), ++ (medium effect: compound altering cell migration of an important proportion of the cells although less drastically), + (low effect: compound affecting cell migration of a small part of the cell population, or only for a limited part of the 72 h incubation), − (no effect: as compared to the control conditions, no difference is observed). The effect on the overall growth was measured by counting the number of cells on the first (Oh) and the last image (72 h) of each film. The global growth ratio (GGR) was then deduced by dividing the number of cells on the last image by the number of cells on the first image. The ratio GGRtreated cells/GGRcontrol cells, was further calculated thereby obtaining a value that describes the effect of compounds of the present invention on the overall cell growth.

[4] = tested on: PC3 (apoptosis-resistant cancer cells); assay: as above; type: cell-based, human; conditions: PC3, 100 nM; for Ratio GGRtreated cells/GGRcontrol cells: 72 h, global growth ratio; for effect on cell migration: filmed for 72 h
Description: as §1, §2

| Compound | MTD at 14 days [1] | IC50 [2] | Ratio GGRtreated cells/GGRcontrol cells [3] | effect on cell migration [3] | Ratio GGRtreated cells/GGRcontrol cells [4] | effect on cell migration [4] |
| --- | --- | --- | --- | --- | --- | --- |
| O=C1N[C@@H]2C(=C[C@H](O)[C@@H](O)[C@H]2OS(=O)(=O)[O-])c2cc3c(c(O)c21)OCO3.[Na+] [Compound 1, (2S,3R,4S,4aR)-2,3,7-trihydroxy-(1,3)dioxolo(4,5-j)-6-oxo-2,3,4,4a,5,6-hexahydrophenanthridin-4-yl sodium sulfate] | > 80 mg/kg | 1000 to 5000 nM |  |  |  |  |
| CC(=O)O[C@H]1C=C2c3cc4c(c(O)c3C(=O)N[C@H]2[C@H](O)[C@@H]1O)OCO4 [Compound 11, (2S,3S,4S,4aR)-3,4,7-trihydroxy-(1,3)dioxolo(4,5-j)-6-oxo-2,3,4,4a,5,6-hexahydrophenanthridin--2-yl acetate] | > 80 mg/kg | 100 to 500 nM | 0.42 | ++ | 0.40 | +++ |
| O=C1c2c(cc3c(c2OCc2ccccc2)OCO3)C2=C[C@H](O)[C@@H](O)[C@@H](O)[C@@H]2N1Cc1ccccc1 [Compound 9, (2S,3R,4S,4aR)-2,3,4-trihydroxy-7-[benzyloxy]-5-benzyl-(1,3)dioxolo(4,5-j)-3,4,4a,5-tetrahydrophenanthridin-6(2H)-one] | 40 mg/kg | > 10000 nM |  |  |  |  |
| CCC(=O)O[C@H]1C=C2c3cc4c(c(O)c3C(=O)N[C@H]2[C@H](O)[C@@H]1O)OCO4 [Compound 19, (2S,3S,4S,4aR)-3,4,7-trihydroxy-(1,3)dioxolo(4,5-j)-6-oxo-2,3,4,4a,5,6-hexahydrophenanthridin-2-yl propionate] | 40 mg/kg | 10 to 50 nM |  |  |  |  |
| O=C1N[C@@H]2C(=C[C@H](O)[C@@H](O)[C@H]2O)c2cc3c(c(O)c21)OCO3 [narciclasine, reference compound] |  | 10 to 50 nM |  |  |  |  |
| CCOC(=O)COc1c2c(cc3c1C(=O)N[C@@H]1C3=C[C@H](OC(C)=O)C(OC(C)=O)[C@H]1OC(C)=O)OCO2 (stereo partly drawn) [Compound 2, ethyl ({(2S,3R,4S,4aR)-2,3,4-tris[(methylcarbonyl)oxy]-(1,3)dioxolo(4,5-j)-6-oxo-2,3,4,4a,5,6-hexahydrophenanthridin--7-yl}oxy)acetate] |  | > 10000 nM |  |  |  |  |
| CC(=O)O[C@@H]1[C@H](OC(C)=O)[C@@H](OC(C)=O)C=C2c3cc4c(c(O)c3C(=S)N[C@H]21)OCO4 [Compound 4, (2S,3R,4S,4aR)-7-hydroxy-(1,3)dioxolo(4,5-j)-6-thioxo-2,3,4,4a,5,6-hexahydrophenanthridin--2,3,4-triyl triacetate] | 40 mg/kg | 1000 to 5000 nM |  |  |  |  |
| COC(=O)COc1c2c(cc3c1C(=O)N[C@@H]1C3=C[C@H](O)[C@@H](O)[C@H]1O)OCO2 [Compound 5, methyl {[(2S,3R,4S,4aR)-2,3,4-trihydroxy-(1,3)dioxolo(4,5-j)-6-oxo-3,4,4a,5-tetrahydrophenanthridin-6(2H)-7-yl]oxy}acetate] |  | 5000 to 10000 nM |  |  |  |  |
| O=C(O)COc1c2c(cc3c1C(=O)N[C@@H]1C3=C[C@H](O)[C@@H](O)[C@H]1O)OCO2 [Compound 6, {[(2S,3R,4S,4aR)-2,3,4-trihydroxy-(1,3)dioxolo(4,5-j)-6-oxo-3,4,4a,5-tetrahydrophenanthridin-6(2H)-7-yl]oxy}acetic acid] |  | 5000 to 10000 nM |  |  |  |  |
| CCOC(=O)COc1c2c(cc3c1C(=O)N(CC(=O)OCC)[C@@H]1C3=C[C@H](OC(C)=O)C(OC(C)=O)[C@H]1OC(C)=O)OCO2 (stereo partly drawn) [Compound 3, ethyl [(2S,3R,4S,4aR)-2,3,4-tris[(methylcarbonyl)oxy]-(1,3)dioxolo(4,5-j)-7-(2-ethoxy-2-oxoethoxy)-6-oxo-2,3,4,4a,5,6-hexahydrophenanthridin--5(3H)-yl]acetate] |  | > 10000 nM |  |  |  |  |
| O=C(O[C@H]1C=C2c3cc4c(c(O)c3C(=O)N[C@H]2[C@H](O)[C@@H]1O)OCO4)c1ccccc1 [Compound 13, (2S,3S,4S,4aR)-3,4,7-trihydroxy-(1,3)dioxolo(4,5-j)-6-oxo-2,3,4,4a,5,6-hexahydrophenanthridin--2-yl benzoate] | 10 mg/kg | 10 to 50 nM | 0.45 | ++ | 0.31 | +++ |
| CC(=O)Oc1c2c(cc3c1C(=O)N[C@@H]1C3=C[C@H](OC(C)=O)[C@@H](O)[C@H]1O)OCO2 [Compound 10, (2S,3S,4S,4aR)-3,4-dihydroxy-(1,3)dioxolo(4,5-j)-6-oxo-2,3,4,4a,5,6-hexahydrophenanthridin--2,7-diyl diacetate] | > 80 mg/kg | 100 to 500 nM | 1.06 | − | 1.38 | + |
| O=C1N[C@@H]2C(=C[C@H](O)[C@@H](O)[C@H]2O)c2cc3c(c(OCc4ccc5ccccc5c4)c21)OCO3 [Compound 8] | > 80 mg/kg | 1000 to 5000 nM |  |  |  |  |
| CC(=O)O[C@@H]1[C@H](OC(C)=O)[C@@H](OC(C)=O)C=C2c3cc4c(c(OCc5ccc6ccccc6c5)c3C(=O)N[C@H]21)OCO4 [Compound 7, (2S,3R,4S,4aR)-7-[(2-naphthylmethoxy]-(1,3)dioxolo(4,5-j)-6-oxo-2,3,4,4a,5,6-hexahydrophenanthridin-2,3,4-triyl triacetate] |  | 1000 to 5000 nM |  |  |  |  |
| CC(C)C(=O)O[C@H]1C=C2c3cc4c(c(O)c3C(=O)N[C@H]2[C@H](O)[C@@H]1O)OCO4 [Compound 20, (2S,3S,4S,4aR)-3,4,7-trihydroxy-(1,3)dioxolo(4,5-j)-6-oxo-2,3,4,4a,5,6-hexahydrophenanthridin-2-yl 2-methylpropanoate] | 40 mg/kg | 10 to 50 nM |  |  |  |  |
